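Where inhibition never reached the appropriate level, the endpoint shown equals the highest concentration tested. Otherwise, values were interpolated linearly from a five-concentration, 48-hour dose response in 96-well plates. GI50: concentration for 50% inhibition of growth. TGI: concentration producing complete growth inhibition.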
Legend:
Assay in all cases: inhibition of tumour cell growth, NCI panel, 48 h
[1] = tested on: MCF7 breast
[2] = tested on: NCI-H23 lung
[3] = tested on: OVCAR-4 ovarian
[4] = tested on: SK-MEL-28 melanoma
[5] = tested on: EKVX NSCLC
[6] = tested on: UACC-62 melanoma
[7] = tested on: NCI-H226 lung
[8] = tested on: DU-145 prostate
[9] = tested on: COLO 205 colon
[10] = tested on: IGROV1 ovarian
[11] = tested on: OVCAR-5 ovarian
[12] = tested on: RXF 393 renal
[13] = tested on: U251 CNS
[14] = tested on: MDA-MB-435
[15] = tested on: KM12 colon
[16] = tested on: LOX IMVI melanoma
[17] = tested on: SF-539 CNS
[18] = tested on: HCT-116 colon
[19] = tested on: SNB-19 CNS
[20] = tested on: K-562 leukemia
[21] = tested on: HOP-62 NSCLC
[22] = tested on: SNB-75 CNS
[23] = tested on: CCRF-CEM leukemia
[24] = tested on: HOP-92 NSCLC
[25] = tested on: HCT-15 colon
[26] = tested on: UACC-257 melanoma
[27] = tested on: MOLT-4 leukemia
[28] = tested on: HS 578T breast
[29] = tested on: HL-60(TB) leukemia
[30] = tested on: SK-MEL-2 melanoma
[31] = tested on: SF-295 CNS
[32] = tested on: ACHN renal
[33] = tested on: HT29 colon
[34] = tested on: OVCAR-8 ovarian
[35] = tested on: PC-3 prostate
[36] = tested on: MDA-MB-231 breast
[37] = tested on: RPMI-8226 leukemia
[38] = tested on: M14 melanoma
[39] = tested on: SK-OV-3 ovarian
[40] = tested on: SW-620 colon
[41] = tested on: A549 NSCLC
[42] = tested on: 786-0 renal
[43] = tested on: SR leukemia
[44] = tested on: TK-10 renal
[45] = tested on: CAKI-1 renal
[46] = tested on: OVCAR-3 ovarian
[47] = tested on: NCI-H522 lung
[48] = tested on: UO-31 renal
[49] = tested on: SN12C renal
[50] = tested on: T-47D breast
[51] = tested on: MALME-3M melanoma
[52] = tested on: A498 renal
[53] = tested on: SF-268 CNS
[54] = tested on: NCI-H460 lung
[55] = tested on: HCC-2998 colon
[56] = tested on: SK-MEL-5 melanoma
[57] = tested on: NCI/ADR-RES ovarian
[58] = tested on: BT-549 breast

CS(=O)(=O)Nc1cc(-c2ccc3ncc(C#N)c(NCc4ccccc4)c3c2)cnc1Cl
GI50 [1]: 0.0637 µM
TGI [1]: 3.75 µM
GI50 [2]: 0.291 µM
TGI [2]: 15.6 µM
GI50 [3]: 0.325 µM
TGI [3]: > 42.7 µM
GI50 [4]: 0.175 µM
TGI [4]: 10.2 µM
GI50 [5]: 0.34 µM
TGI [5]: 3.86 µM
GI50 [6]: 0.0764 µM
TGI [6]: 0.815 µM
GI50 [7]: 0.347 µM
TGI [7]: 18 µM
GI50 [8]: 0.322 µM
TGI [8]: 19.2 µM
GI50 [9]: 0.353 µM
TGI [9]: 2.87 µM
GI50 [10]: 0.0896 µM
TGI [10]: 0.667 µM
GI50 [11]: 0.44 µM
TGI [11]: 21.1 µM
GI50 [12]: 0.0384 µM
TGI [12]: 0.435 µM
GI50 [13]: 0.218 µM
TGI [13]: 12.7 µM
GI50 [14]: 0.299 µM
TGI [14]: 8.27 µM
GI50 [15]: 0.431 µM
TGI [15]: 4.98 µM
GI50 [16]: 0.214 µM
TGI [16]: 1.11 µM
GI50 [17]: 0.205 µM
TGI [17]: 1.7 µM
GI50 [18]: 0.334 µM
TGI [18]: 4.36 µM
GI50 [19]: 0.268 µM
TGI [19]: 11.6 µM
GI50 [20]: 0.311 µM
TGI [20]: > 100 µM
GI50 [21]: 0.27 µM
TGI [21]: 9.12 µM
GI50 [22]: 0.0382 µM
TGI [22]: 0.334 µM
GI50 [23]: 0.117 µM
TGI [23]: 15.2 µM
GI50 [24]: 0.0337 µM
TGI [24]: 0.399 µM
GI50 [25]: 0.268 µM
TGI [25]: 11.4 µM
GI50 [26]: 0.327 µM
TGI [26]: 6.32 µM
GI50 [27]: 0.177 µM
TGI [27]: 3.94 µM
GI50 [28]: 0.065 µM
TGI [28]: 0.521 µM
GI50 [29]: 0.294 µM
TGI [29]: 7.52 µM
GI50 [30]: 0.195 µM
TGI [30]: 0.975 µM
GI50 [31]: 0.192 µM
TGI [31]: 1.74 µM
GI50 [32]: 0.434 µM
TGI [32]: > 46.3 µM
GI50 [33]: 0.463 µM
TGI [33]: 25 µM
GI50 [34]: 0.364 µM
TGI [34]: > 39.4 µM
GI50 [35]: 0.158 µM
TGI [35]: 2.75 µM
GI50 [36]: 0.331 µM
TGI [36]: 6.37 µM
GI50 [37]: 0.212 µM
TGI [37]: 1.07 µM
GI50 [38]: 0.178 µM
TGI [38]: 10.8 µM
GI50 [39]: 0.259 µM
TGI [39]: 1.61 µM
GI50 [40]: 0.351 µM
TGI [40]: > 36.1 µM
GI50 [41]: 0.5 µM
TGI [41]: 7.74 µM
GI50 [42]: 0.35 µM
TGI [42]: > 45.4 µM
GI50 [43]: 0.164 µM
TGI [43]: 7.91 µM
GI50 [44]: 0.19 µM
TGI [44]: 1.97 µM
GI50 [45]: 0.186 µM
TGI [45]: 2.37 µM
GI50 [46]: 0.254 µM
TGI [46]: 2.79 µM
GI50 [47]: 0.281 µM
TGI [47]: 13.9 µM
GI50 [48]: 0.111 µM
TGI [48]: 3.17 µM
GI50 [49]: 0.233 µM
TGI [49]: > 49.5 µM
GI50 [50]: 0.0521 µM
TGI [50]: 2.67 µM
GI50 [51]: 0.079 µM
TGI [51]: 0.626 µM
GI50 [52]: 0.101 µM
TGI [52]: 0.498 µM
GI50 [53]: 0.197 µM
TGI [53]: 5.22 µM
GI50 [54]: 0.371 µM
TGI [54]: > 100 µM
GI50 [55]: 0.325 µM
TGI [55]: 6.42 µM
GI50 [56]: 0.146 µM
TGI [56]: 0.344 µM
GI50 [57]: 1.7 µM
TGI [57]: 28.9 µM
GI50 [58]: 0.155 µM
TGI [58]: 2.04 µM

C[C@]12CC[C@H](O)C[C@@H]1CC[C@@H]1[C@@H]2CC[C@@]2(C)[C@H]1CC[C@@H]2[C@](C)(O)CCc1ccc(F)cc1
GI50 [1]: 2.55 µM
TGI [1]: 15 µM
GI50 [2]: 3.78 µM
TGI [2]: 18.4 µM
GI50 [3]: 1.77 µM
TGI [3]: 18.4 µM
GI50 [4]: 12.3 µM
TGI [4]: 26.4 µM
GI50 [5]: 2.27 µM
TGI [5]: 18.1 µM
GI50 [6]: 10.6 µM
TGI [6]: 26.7 µM
GI50 [7]: 5.97 µM
TGI [7]: 24.8 µM
GI50 [8]: 7.14 µM
TGI [8]: 23.7 µM
GI50 [9]: 8.81 µM
TGI [9]: 42.4 µM
GI50 [10]: 6.04 µM
TGI [10]: 20.7 µM
GI50 [11]: 5.64 µM
TGI [11]: 19.6 µM
GI50 [12]: 2.46 µM
TGI [12]: 10.8 µM
GI50 [13]: 10.9 µM
TGI [13]: 31 µM
GI50 [14]: 7.84 µM
TGI [14]: 25 µM
GI50 [15]: 4.22 µM
TGI [15]: 19.4 µM
GI50 [16]: 3.41 µM
TGI [16]: 15.1 µM
GI50 [17]: 6.94 µM
TGI [17]: 20.8 µM
GI50 [18]: 3.65 µM
TGI [18]: 16.4 µM
GI50 [19]: 10.5 µM
TGI [19]: 25.1 µM
GI50 [20]: 1.88 µM
TGI [20]: > 100 µM
GI50 [21]: 13.1 µM
TGI [21]: 43.9 µM
GI50 [22]: 4.07 µM
TGI [22]: 26.9 µM
GI50 [23]: 4.56 µM
TGI [23]: 59.7 µM
GI50 [24]: 4.22 µM
TGI [24]: 22.5 µM
GI50 [25]: 3.82 µM
TGI [25]: 18.3 µM
GI50 [26]: 4.53 µM
TGI [26]: 35.5 µM
GI50 [27]: 3.21 µM
TGI [27]: 24.6 µM
GI50 [28]: 7.71 µM
TGI [28]: 37.9 µM
GI50 [29]: 3.87 µM
TGI [29]: 24 µM
GI50 [30]: 11.4 µM
TGI [30]: 51.9 µM
GI50 [31]: 2.43 µM
TGI [31]: 10.9 µM
GI50 [32]: 5.81 µM
TGI [32]: 18.9 µM
GI50 [33]: 6.42 µM
TGI [33]: 36.7 µM
GI50 [34]: 8.35 µM
TGI [34]: 62.7 µM
GI50 [35]: 5.02 µM
TGI [35]: 30.7 µM
GI50 [36]: 5.33 µM
TGI [36]: 20.5 µM
GI50 [37]: 2.4 µM
TGI [37]: 43.9 µM
GI50 [39]: 16.1 µM
TGI [39]: 76.2 µM
GI50 [40]: 7.13 µM
TGI [40]: 24.1 µM
GI50 [41]: 5.04 µM
TGI [41]: 39.2 µM
GI50 [42]: 6.14 µM
TGI [42]: 21 µM
GI50 [43]: 2.11 µM
TGI [43]: 22.3 µM
GI50 [44]: 16.7 µM
TGI [44]: 56.4 µM
GI50 [45]: 5.43 µM
TGI [45]: 20.1 µM
GI50 [46]: 4.72 µM
TGI [46]: 16.7 µM
GI50 [47]: 4.45 µM
TGI [47]: 49.4 µM
GI50 [48]: 4.43 µM
TGI [48]: 31.4 µM
GI50 [49]: 3.79 µM
TGI [49]: 15.7 µM
GI50 [50]: 1.95 µM
TGI [50]: 45.1 µM
GI50 [51]: 17.9 µM
TGI [51]: 41.8 µM
GI50 [52]: 2.4 µM
TGI [52]: 15.6 µM
GI50 [53]: 8.46 µM
TGI [53]: 25.4 µM
GI50 [54]: 3.38 µM
TGI [54]: 14 µM
GI50 [55]: 9.79 µM
TGI [55]: 23.8 µM
GI50 [56]: 1.32 µM
TGI [56]: 6.81 µM
GI50 [57]: 2.87 µM
TGI [57]: 13.9 µM
GI50 [58]: 3.85 µM
TGI [58]: 17.5 µM
